Test system: hEPO
Assay: Delivery of hEPO mRNA by intramuscular administration of lipid nanoparticles; serum hEPO by ELISA
Type: in vivo, female BALB/cJ mice
Settings: single IM 0.1 μg/An hEPO mRNA LNP, lipid formulation 1 (N/P 4), MC3 and SM-102 in formulation 2 (N/P 3); for hEPO 6 Hr Mean: 6 h post injection; for hEPO 24 Hr Mean: 24 h post injection
From the text: The lipid nanoparticles in the examples of the present invention were formulated using Process A of WO 2018/089801 (see, e.g., Example 1 and FIG. 1 of WO 2018/089801). Process A (“A”) relates to a conventional method of encapsulating mRNA by mixing mRNA with a mixture of lipids, without first pre-forming the lipids into lipid nanoparticles. In an exemplary process, an ethanolic solution of a mixture of lipids (cationic lipid, phosphatidylethanolamine, cholesterol, and polyethylene glycol-lipid) at a fixed lipid to mRNA ratio were combined with an aqueous buffered solution of target mRNA at an acidic pH under controlled conditions to yield a suspension of uniform LNPs. After ultrafiltration and diafiltration into a suitable diluent system, the resulting nanoparticle suspensions were diluted to final concentration, filtered, and stored frozen at −80 °C until use.
Lipid nanoparticle formulations of Table C were prepared by Process A. All of the lipid nanoparticle formulations comprised hEPO mRNA and the different lipids (Cationic Lipid: DMG-PEG2000: Cholesterol: DOPE/DSPC) in the mol % ratios specified in Table C.
The cationic lipids of the present invention and lipid OF-02 were evaluated with lipid nanoparticle formulation 1. MC3 and SM-102 were evaluated with lipid nanoparticle formulation 2, which is a typical formulation for those lipids.
In summary, lipid screening studies were conducted with female BALB/cJ mice 6-8 weeks of age (Jax #000651). Mice were dosed with 0.1 μg in 30 μL of LNPs by a single intramuscular (IM) injection into the gastrocnemius leg muscle. Blood samples were taken 6 and 24 hours post injection and hEPO levels were measured in the blood serum of the mice using an ELISA assay according to the manufacture's protocol (R&D systems, Cat #DEP-00). WO2022/099003 A1 also describes an in vivo assay for intramuscular administration (e.g. on page 46, paragraph [00206]).

CCCCCCCCCCCOC(=O)CCCC(O)CN(CCCCSSCCCCN1CCN(CCOC(=O)CCCN(CC(O)CCCCCC(=O)OC(CCCCCCCC)CCCCCCCC)CC(O)CCCC(=O)OCCCCCCCCCCC)CC1)CC(O)CCCCCC(=O)OC(CCCCCCCC)CCCCCCCC (stereo not shown) [Compound 14]
hEPO 6 Hr Mean: 26.4 ng/mL
hEPO 24 Hr Mean: 12.8 ng/mL

CCCCCC/C=C\COC(=O)CCCCCCCN(CCCCCCCC(=O)OC(CCCCCCCC)CCCCCCCC)CCCCSSCCCCN1CCN(CCOC(=O)CCCN(CC(O)CCCCCCCCCC)CC(O)CCCCCCCCCC)CC1 (stereo not shown) [Compound 3]
hEPO 6 Hr Mean: 20.5 ng/mL
hEPO 24 Hr Mean: 19.3 ng/mL

CCCCC/C=C\C/C=C\CCCCCCCCC(CCCCCCCC/C=C\C/C=C\CCCCC)OC(=O)CCCN(C)C [MC3, reference compound]
hEPO 6 Hr Mean: 3.9 ng/mL
hEPO 24 Hr Mean: 2.9 ng/mL

CCCCCCCCCCCOC(=O)CCCCCN(CCCCCCCC(=O)OC(CCCCCCCC)CCCCCCCC)CCCC(=O)OCCN1CCN(CCCCSSCCCN(CC(O)CCCCC(=O)OCC(CC)CC)CC(O)CCCCC(=O)OCC(CC)CC)CC1 (stereo not shown) [Compound 9]
hEPO 6 Hr Mean: 24.3 ng/mL
hEPO 24 Hr Mean: 15.7 ng/mL

CCCCCCCCCCC(O)CN(CCCC(=O)OCCN1CCN(CCCCSSCCCN(CC(O)CCCCC(=O)OCC(CC)CC)CC(O)CCCCC(=O)OCC(CC)CC)CC1)CC(O)CCCCCCCCCC (stereo not shown) [Compound 16]
hEPO 6 Hr Mean: 32.4 ng/mL
hEPO 24 Hr Mean: 18.7 ng/mL

CCCCCC/C=C\COC(=O)CCCCCC(O)CN(CCCCSSCCCCN1CCN(CCOC(=O)CCCN(CC(O)CCCCCCCCCC)CC(O)CCCCCCCCCC)CC1)CC(O)CCCCCC(=O)OC(CCCCCCCC)CCCCCCCC (stereo not shown) [Compound 5]
hEPO 6 Hr Mean: 35 ng/mL
hEPO 24 Hr Mean: 18.7 ng/mL

CCCCCCCC/C=C\CCCCCCCCN(CCCCCCCC(=O)OC(CCCCCCCC)CCCCCCCC)CCCCSSCCCCN1CCN(CCOC(=O)CCCN(CC(O)CCCCCCCCCC)CC(O)CCCCCCCCCC)CC1 (stereo not shown) [Compound 1]
hEPO 6 Hr Mean: 11 ng/mL
hEPO 24 Hr Mean: 9.5 ng/mL

CCCCC/C=C\C/C=C\CCCCCCC(O)CN(CCCCSSCCCCN1CCN(CCOC(=O)CCCN(CC(O)CCCCCCCCCC)CC(O)CCCCCCCCCC)CC1)CC(O)CCCCCC(=O)OC(CCCCCCCC)CCCCCCCC (stereo not shown) [Compound 7]
hEPO 6 Hr Mean: 31.4 ng/mL
hEPO 24 Hr Mean: 25.8 ng/mL

CCCCCCCCCCCOC(=O)CCCC(O)CN(CCCC(=O)OCCN1CCN(CCCCSSCCCN(CC(O)CCCCC(=O)OCC(CC)CC)CC(O)CCCCC(=O)OCC(CC)CC)CC1)CC(O)CCCCCC(=O)OC(CCCCCCCC)CCCCCCCC (stereo not shown) [Compound 12]
hEPO 6 Hr Mean: 37.4 ng/mL
hEPO 24 Hr Mean: 21 ng/mL

CCCCCCCCCCC(O)CN(CCCC(=O)OCCN1CCN(CCCCSSCCCCN(CC(O)CCCCC(=O)OCC(CC)CC)CC(O)CCCCC(=O)OCC(CC)CC)CC1)CC(O)CCCCCCCCCC (stereo not shown) [Compound 15]
hEPO 6 Hr Mean: 36 ng/mL
hEPO 24 Hr Mean: 22.8 ng/mL

CCCCCCCCCCC(O)CN(CCCC(=O)OCCN1CCN(CCCCSSCCCCN(CC(O)CCCC(=O)OC(CC)CC)CC(O)CCCC(=O)OC(CC)CC)CC1)CC(O)CCCCCCCCCC (stereo not shown) [Compound 17]
hEPO 6 Hr Mean: 19.7 ng/mL
hEPO 24 Hr Mean: 10.4 ng/mL

CCCCCCCCCCCOC(=O)CCCCCN(CCO)CCCCCCCC(=O)OC(CCCCCCCC)CCCCCCCC [SM102, SM-102, reference compound]
hEPO 6 Hr Mean: 12.5 ng/mL
hEPO 24 Hr Mean: 13.3 ng/mL

CCCCCCCCCCCOC(=O)CCCC(O)CN(CCCCSSCCCCN1CCN(CCOC(=O)CCCN(CC(O)CCCCCCCCCC)CC(O)CCCCCCCCCC)CC1)CC(O)CCCCCC(=O)OC(CCCCCCCC)CCCCCCCC (stereo not shown) [Compound 8]
hEPO 6 Hr Mean: 41.8 ng/mL
hEPO 24 Hr Mean: 33.3 ng/mL

CCCCCCCCCCC(O)CN(CCCC(=O)OCCN1CCN(CCCCSSCCCN(CC(O)CCCC(=O)OC(CC)CC)CC(O)CCCC(=O)OC(CC)CC)CC1)CC(O)CCCCCCCCCC (stereo not shown) [Compound 18]
hEPO 6 Hr Mean: 18.2 ng/mL
hEPO 24 Hr Mean: 9.2 ng/mL

CCCCCCCCCCCOC(=O)CCCCCN(CCCCCCCC(=O)OC(CCCCCCCC)CCCCCCCC)CCCC(=O)OCCN1CCN(CCCCSSCCCCN(CC(O)CCCCCC(=O)OC(CCCCCCCC)CCCCCCCC)CC2CCCC(=O)O2)CC1 (stereo not shown) [Compound 10]
hEPO 6 Hr Mean: 19.6 ng/mL
hEPO 24 Hr Mean: 7.7 ng/mL

CCCCCCCC/C=C\CCCCCCC(O)CN(CCCCSSCCCCN1CCN(CCOC(=O)CCCN(CC(O)CCCCCCCCCC)CC(O)CCCCCCCCCC)CC1)CC(O)CCCCCC(=O)OC(CCCCCCCC)CCCCCCCC (stereo not shown) [Compound 6]
hEPO 6 Hr Mean: 34.7 ng/mL
hEPO 24 Hr Mean: 18.4 ng/mL

CCCCC/C=C\C/C=C\CCCCCCCCN(CCCCCCCC(=O)OC(CCCCCCCC)CCCCCCCC)CCCCSSCCCCN1CCN(CCOC(=O)CCCN(CC(O)CCCCCCCCCC)CC(O)CCCCCCCCCC)CC1 (stereo not shown) [Compound 4]
hEPO 6 Hr Mean: 18.8 ng/mL
hEPO 24 Hr Mean: 12.1 ng/mL

CCCCCCCCCCCOC(=O)CCCCCN(CCCCCCCC(=O)OC(CCCCCCCC)CCCCCCCC)CCCCSSCCCCN1CCN(CCOC(=O)CCCN(CC(O)CCCCCCCCCC)CC(O)CCCCCCCCCC)CC1 (stereo not shown) [Compound 2]
hEPO 6 Hr Mean: 35.4 ng/mL
hEPO 24 Hr Mean: 29.2 ng/mL

CCCCCCCCCCCOC(=O)CCCCCN(CCCCCCCC(=O)OC(CCCCCCCC)CCCCCCCC)CCCC(=O)OCCN1CCN(CCCCSSCCCCN(CC(O)CCCCCC(=O)OC(CCCCCCCC)CCCCCCCC)CC(O)CCCC(=O)OCCCCCCCCCCC)CC1 (stereo not shown) [Compound 13]
hEPO 6 Hr Mean: 29.5 ng/mL
hEPO 24 Hr Mean: 13.8 ng/mL

CCCCCCCCC(CCCCCCCC)OC(=O)CCCCCC(O)CN(CCCC(=O)OCCN1CCN(CCCCSSCCCN(CC(O)CCCCC(=O)OCC(CC)CC)CC(O)CCCCC(=O)OCC(CC)CC)CC1)CC1CCCC(=O)O1 (stereo not shown) [Compound 11]
hEPO 6 Hr Mean: 18.7 ng/mL
hEPO 24 Hr Mean: 10.1 ng/mL
